According to patent publication US11654136B2, “Phosphoinositide 3-kinase inhibitor with a zinc binding moiety” (Curis, Inc., priority 2011, dated 2023):

Legend:
SW620 = assay: Cell proliferation assay SW620; format: cell-based; conditions: Homo sapiens, SW-620, Colon, 72 hours, read-out: IC50 antiproliferative activity
Protocol: (§1) Growth inhibition was accessed by adenosine triphosphate (ATP) content assay using Promega CellTiter-Glo kit. Promega CellTiter-Glo kit is an ATP monitoring system based on firefly luciferase. Briefly, 16 μl of mammalian cell lysis and substrate solution was added to 84 µl of culture medium per well to lyse the cells and stabilize the ATP. The mixture was shaken and incubated for 30 minutes and subsequently the luminescence was measured. IC50 values were calculated using PRISM software (GraphPad Software) with sigmoidal dose-response curve fitting.

H2122 = assay: Cell proliferation assay H2122; format: cell-based; conditions: Homo sapiens, NCI-H2122, NSCLC, 72 hours, read-out: IC50 antiproliferative activity
Protocol: as §1

HCC1806 = assay: Cell proliferation assay HCC1806; format: cell-based; conditions: Homo sapiens, Breast, 72 hours, read-out: IC50 antiproliferative activity
Protocol: as §1

BT474 = assay: Cell proliferation assay BT474; format: cell-based; conditions: Homo sapiens, BT-474, Breast, 72 hours, read-out: IC50 antiproliferative activity
Protocol: as §1

MDA-MB-468 = assay: Cell proliferation assay MDA-MB-468; format: cell-based; conditions: Homo sapiens, Breast, 72 hours, read-out: IC50 antiproliferative activity
Protocol: as §1

MOLT-4 = assay: Cell proliferation assay MOLT-4; format: cell-based; conditions: Homo sapiens, ALL, 72 hours, read-out: IC50 antiproliferative activity
Protocol: as §1

SUP-B15 = assay: Cell proliferation assay SUP-B15; format: cell-based; conditions: Homo sapiens, ALL, 72 hours, read-out: IC50 antiproliferative activity
Protocol: as §1

HL-60 = assay: Cell proliferation assay HL-60; format: cell-based; conditions: Homo sapiens, AML, 72 hours, read-out: IC50 antiproliferative activity
Protocol: as §1

Raji = assay: Cell proliferation assay Raji; format: cell-based; conditions: Homo sapiens, B-Cell Lymphoma, 72 hours, read-out: IC50 antiproliferative activity
Protocol: as §1

DOHH2 = assay: Cell proliferation assay DOHH2; format: cell-based; conditions: Homo sapiens, DOHH-2, B-Cell Lymphoma, 72 hours, read-out: IC50 antiproliferative activity
Protocol: as §1

K562 = assay: Cell proliferation assay K562; format: cell-based; conditions: Homo sapiens, CML, 72 hours, read-out: IC50 antiproliferative activity
Protocol: as §1

OPM-2 = assay: Cell proliferation assay OPM-2; format: cell-based; conditions: Homo sapiens, Multiple Myeloma, 72 hours, read-out: IC50 antiproliferative activity
Protocol: as §1

[1] = Pharmacokinetics in nude mice bearing H2122 tumors; format: in vivo; conditions: PO 50 mg/kg; for Cmax / bioavailability: mouse
Protocol: Nude mice bearing H2122 (human non-small cell lung cancer cell line) xenograft tumors were used for pharmacokinetics studies. […] At various time points following compound administration, three mice per time point were euthanized with CO2, and blood and tumor tissues were collected. Blood was collected into tubes containing sodium heparin. The plasma was separated via centrifugation. Plasma and tissues were stored at −80° C. for later analysis. A PE Sciex API-3000 LC-MS/MS system (Applied Biosystems, Inc., Foster City, Calif.) was used to analyze compound concentrations in plasma and tumor tissues.

[2] = tested on: Daudi human Burkitt's lymphoma xenograft; assay: Comparison with CAL-101 in the Daudi xenograft tumor model; format: in vivo, SCID beige mice; conditions: 100 mg/kg Qd (Mon-Fri), PO; 18 days
Protocol: Female SCID beige mice (CD-1 Beige SCID) at 6-8 weeks of age were housed in ventilated micro-isolator cages in a controlled climate, fed with sterile high-fat diet (Problab-RMH 2000 ad libitum and provided with sterilized water. All housing and supplies for SCID beige mice are disposable, and purchased irradiated from Innovive prior to use. Mice were inspected daily including weekends/holidays by trained animal facility personnel and investigators. All animal procedures were performed under sterile conditions in a biosafety cabinet (for injections) or laminar flow hood (for animal husbandry and non-invasive procedures).
Daudi human Burkitt's lymphoma cells were originally obtained from a human Burkitt's lymphoma patient. […] The implanted mice were monitored for general health and tumor development daily.
Tumors were detectable about two weeks following implantation. Tumor size was measured with a caliper. […]
During each animal study, tumors were measured with calipers, tumor size determined using the above mentioned formula, and tumor size changes in percentage calculated. Mouse body weights were measured with a scale twice per week. […] T/C values were calculated using the following formula: % T/C=100×ΔT/ΔC if ΔT>0. […]
Tumor sizes and body weights were measured again on the last day of the study.

[3] = Plasma, H2122 tumor-bearing nude mice

| Structure (SMILES) | IC50 (SW620) | IC50 (H2122) | IC50 (HCC1806) | IC50 (BT474) | IC50 (MDA-MB-468) | IC50 (MOLT-4) | IC50 (SUP-B15) | IC50 (HL-60) | IC50 (Raji) | IC50 (DOHH2) | IC50 (K562) | IC50 (OPM-2) | other results |
| --- | --- | --- | --- | --- | --- | --- | --- | --- | --- | --- | --- | --- | --- |
| COc1ccc(-c2nc(N3CCOCC3)c3sc(CN(C)c4ncc(C(=O)NO)cn4)cc3n2)cn1 [Compound 1, N-hydroxy-2-(((2-(6-methoxypyridin-3-yl)-4-morpholinothieno[3,2-d]pyrimidin-6-yl)methyl)(methyl)amino)pyrimidine-5-carboxamide] | < 10 nM | < 10 nM | 10 to 100 nM | < 10 nM | 10 to 100 nM | < 10 nM | < 10 nM | < 10 nM | 10 to 100 nM | < 10 nM | 10 to 100 nM | < 10 nM | Distribution between plasma and tumor tissue [1]: preferentially accumulates in tumor tissue; Area under the Curve [1, 3]: 478 ng/mL * hr; Half-life [1, 3]: 5.9 h; Area under the Curve ([1]; Tumor): 2126 ng/mL * hr; Half-life ([1]; Tumor): 10.1 h; Cmax ([1]; Tumor): 154 ng/mL; bioavailability ([1]; Tumor): 14.8%; Cmax [1, 3]: 186 ng/mL; bioavailability [1, 3]: 7.8%; Tumor growth [2]: significantly reduced tumor growth compared to the CAL-101 and control groups |
| CS(=O)(=O)N1CCN(Cc2cc3nc(-c4cccc5[nH]ncc45)nc(N4CCOCC4)c3s2)CC1 [GDC-0941, reference compound] | > 10000 nM | 1000 to 10000 nM | > 10000 nM | 100 to 1000 nM | 100 to 1000 nM | 100 to 1000 nM | 1000 to 10000 nM | 100 to 1000 nM | > 10000 nM | 10 to 100 nM | 1000 to 10000 nM | 10 to 100 nM |  |
